Measurements taken from ChEMBL document CHEMBL1933034, “Synthesis, docking and in vitro antimalarial evaluation of bifunctional hybrids derived from β-lactams and 7-chloroquinoline using click chemistry” (Bioorg Med Chem Lett, 2012).
pIC50: −log10 of the molar value.

Each molecule was assayed on Plasmodium falciparum (assay: Antimalarial activity against chloroquine-resistant ring stage of Plasmodium falciparum W2 infected in human erythrocytes assessed as inhibition of parasitemia after 48 hrs by FACS analysis). Settings: W2, 48 h.
Assay type: functional, organism-based

SMILES | pIC50
Cc1ccc(N2C(=O)[C@@H](NCc3cn(-c4ccnc5cc(Cl)ccc45)nn3)[C@H]2/C=C/c2ccccc2)cc1 | < 5.00
O=C1[C@@H](NCc2cn(-c3ccnc4cc(Cl)ccc34)nn2)[C@@H](/C=C/c2ccccc2)N1c1ccccc1 | 5.72
O=C1[C@@H](NCc2cn(-c3ccnc4cc(Cl)ccc34)nn2)[C@@H](/C=C/c2ccccc2)N1c1ccc(F)cc1 | < 5.00
O=C1[C@@H](NCc2cn(-c3ccnc4cc(Cl)ccc34)nn2)[C@@H](/C=C/c2ccccc2)N1C1CCCCC1 | 5.37
O=C1[C@@H](NCc2cn(-c3ccnc4cc(Cl)ccc34)nn2)[C@@H](/C=C/c2ccccc2)N1Cc1ccccc1 | 5.23
Cc1ccc(N2C(=O)[C@@H](N(Cc3cn(-c4ccnc5cc(Cl)ccc45)nn3)Cc3cn(-c4ccnc5cc(Cl)ccc45)nn3)[C@H]2/C=C/c2ccccc2)cc1 | 5.82
O=C1[C@@H](N(Cc2cn(-c3ccnc4cc(Cl)ccc34)nn2)Cc2cn(-c3ccnc4cc(Cl)ccc34)nn2)[C@@H](/C=C/c2ccccc2)N1c1ccccc1 | 5.68
O=C1[C@@H](N(Cc2cn(-c3ccnc4cc(Cl)ccc34)nn2)Cc2cn(-c3ccnc4cc(Cl)ccc34)nn2)[C@@H](/C=C/c2ccccc2)N1c1ccc(F)cc1 | 5.96
O=C1[C@@H](N(Cc2cn(-c3ccnc4cc(Cl)ccc34)nn2)Cc2cn(-c3ccnc4cc(Cl)ccc34)nn2)[C@@H](/C=C/c2ccccc2)N1C1CCCCC1 | 5.55
O=C1[C@@H](N(Cc2cn(-c3ccnc4cc(Cl)ccc34)nn2)Cc2cn(-c3ccnc4cc(Cl)ccc34)nn2)[C@@H](/C=C/c2ccccc2)N1Cc1ccccc1 | 5.57
